The source of these data is patent US8536354B2, “Steroidal ligands and their use in gene switch modulation” (Intrexon Corporation, priority 2008, dated 2013).

In general, EC50 refers to the concentration giving half of the maximal effect.

Assay [1] addresses T1, wild-type Aedes aegypti EcR (AaEcR-DEF) (Aedes aegypti, UniProt P49880).
T1 sequence (P49880 405-776 limits assumed): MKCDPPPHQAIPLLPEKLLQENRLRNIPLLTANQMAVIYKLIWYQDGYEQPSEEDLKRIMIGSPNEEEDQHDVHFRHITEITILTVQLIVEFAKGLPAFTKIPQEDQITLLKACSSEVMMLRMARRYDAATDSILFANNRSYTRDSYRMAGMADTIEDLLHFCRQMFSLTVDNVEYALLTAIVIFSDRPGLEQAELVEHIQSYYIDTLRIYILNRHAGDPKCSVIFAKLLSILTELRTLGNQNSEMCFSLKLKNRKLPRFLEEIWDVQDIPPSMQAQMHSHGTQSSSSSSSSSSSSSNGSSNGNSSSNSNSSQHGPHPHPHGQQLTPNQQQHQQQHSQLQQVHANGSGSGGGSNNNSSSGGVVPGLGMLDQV
Kind of assay: Two-hybrid gene switch assay, AaEcR-DEF in NIH3T3 cells. The following applies: AaEcR; for rel max FI (20E), AA: max fold induction at any concentration relative to 20E; for rel max FI (PoA), AA: max fold induction at any concentration relative to PoA; for EC50: NIH3T3 cells, luciferase, 48 h, ligand 0.01-33 μM.

For assay [2], the target named is T2, wild-type Drosophila melanogaster EcR (DmEcR-DEF) (Drosophila melanogaster, UniProt P34021).
T2 sequence (P34021 342-878 limits assumed): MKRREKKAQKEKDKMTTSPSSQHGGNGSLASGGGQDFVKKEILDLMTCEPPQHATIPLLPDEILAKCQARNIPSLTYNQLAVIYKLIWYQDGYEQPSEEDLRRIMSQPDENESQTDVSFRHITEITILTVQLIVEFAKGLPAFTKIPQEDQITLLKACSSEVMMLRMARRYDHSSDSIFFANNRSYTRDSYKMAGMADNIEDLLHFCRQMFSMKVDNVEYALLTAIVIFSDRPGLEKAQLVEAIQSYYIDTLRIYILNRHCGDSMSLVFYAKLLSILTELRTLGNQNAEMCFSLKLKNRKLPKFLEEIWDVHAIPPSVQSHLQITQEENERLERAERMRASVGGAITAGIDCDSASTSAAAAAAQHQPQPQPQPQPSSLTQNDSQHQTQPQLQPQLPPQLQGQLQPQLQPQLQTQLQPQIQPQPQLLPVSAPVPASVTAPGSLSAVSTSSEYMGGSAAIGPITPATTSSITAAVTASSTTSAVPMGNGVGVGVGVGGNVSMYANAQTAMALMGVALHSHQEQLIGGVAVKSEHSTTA
The experiment in a line: Two-hybrid gene switch assay, DmEcR-DEF in NIH3T3 cells. The following applies: for rel max FI (20E), DM: max fold induction at any concentration relative to 20E; for rel max FI (PoA), DM: max fold induction at any concentration relative to PoA.

The target in assay [3] is T3, Tenebrio molitor EcR (TmEcR-DEF) (Tenebrio molitor, UniProt O02035).
T3 sequence (O02035 194-491): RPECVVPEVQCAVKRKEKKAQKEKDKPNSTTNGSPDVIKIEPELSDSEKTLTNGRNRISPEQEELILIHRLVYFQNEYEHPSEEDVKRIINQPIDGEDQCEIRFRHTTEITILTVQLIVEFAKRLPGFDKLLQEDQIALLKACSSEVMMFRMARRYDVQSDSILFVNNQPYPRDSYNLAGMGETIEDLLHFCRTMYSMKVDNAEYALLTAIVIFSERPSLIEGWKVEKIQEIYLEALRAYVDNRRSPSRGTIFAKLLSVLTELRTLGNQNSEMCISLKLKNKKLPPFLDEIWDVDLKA
T3 sequence (P28704 285-520 partner): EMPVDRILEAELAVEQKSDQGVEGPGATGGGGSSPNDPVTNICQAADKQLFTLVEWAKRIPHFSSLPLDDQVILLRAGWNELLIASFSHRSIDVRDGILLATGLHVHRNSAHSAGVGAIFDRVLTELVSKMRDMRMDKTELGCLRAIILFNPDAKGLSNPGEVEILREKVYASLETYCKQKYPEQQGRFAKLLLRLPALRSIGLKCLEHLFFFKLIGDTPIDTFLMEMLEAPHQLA
The experiment in a line: Two-hybrid gene switch assay, TmEcR-DEF in NIH3T3 cells. The following applies: for Emax: NIH3T3, 48 h.

The test system of assay [4] is EcRs (lepidopteran and non-lepidopteran). Kind of assay: Two-hybrid gene switch assays, statements across the set of ten EcRs in NIH3T3 cells.
Assay [5] deals with D. melanogaster BII cell line (expresses the ecdysteroid receptor complex EcR-USP). The experiment in a line: Drosophila melanogaster BII cell line bioassay (turbidometric; agonist and antagonist versions). The following applies: Drosophila BII cell line, Example Two.

“Also recorded” adds a separate entry of the source. Like-named read-outs stand apart in the source and are kept apart here.

On to `CO[C@H](CCC(C)(C)O)[C@](C)(O)C1CC[C@@]2(O)C3=CC(=O)C4C[C@@H](O)[C@@H](O)CC4(C)C3CCC12C` (some centres unmarked) [20E-22-methyl ether], for which the “rel max FI (20E), AA” value in assay [1] is 2.52. For the same compound, the “rel max FI (PoA), AA” value in assay [1] is 0.86. For the same compound, the EC50 is 1.04 µM in assay [1] (EC50 (μM), AA); roughly 4 µM in assay [2]; 7.08 µM in assay [3]. The “rel max FI (20E), DM” value in assay [2] (DmEcR) amounted to 0.87. Also, in assay [2] (DmEcR), the “rel max FI (PoA), DM” value was found to be 1.07. The Emax in assay [3] (read-out: rel max FI (20E), TM) came out at 158%; in assay [3] (read-out: rel max FI (PoA), TM), 81%.

In the case of `CO[C@@H]1C[C@H]2C(=O)C=C3[C@H](CC[C@]4(C)[C@@H]([C@@](C)(O)[C@H](O)CCC(C)(C)O)CC[C@@]34O)[C@@]2(C)C[C@@H]1O` [20E-3-methyl ether], the “rel max FI (20E), AA” value in assay [1] stood at 1.75. Further, in assay [1], the “rel max FI (PoA), AA” value amounted to 0.60. In addition, the EC50 in assay [1] (EC50 (μM), AA) was roughly 10 µM; in assay [2] it was greater than 33 µM; in assay [3], roughly 10 µM. For the same compound, the “rel max FI (20E), DM” value in assay [2] (DmEcR) amounted to 0.02. The “rel max FI (PoA), DM” value in assay [2] (DmEcR) was 0.03. Moreover, the Emax was 114% in assay [3] (read-out: rel max FI (20E), TM) and 59% in assay [3] (read-out: rel max FI (PoA), TM).

Turning to `COC1C[C@H]2C(=O)C=C3[C@H](CC[C@]4(C)[C@@H]([C@@](C)(O)C(CCC(C)(C)O)OC)CC[C@@]34OC)[C@@]2(C)CC1OC` (some centres unmarked) [20E-2,3,14,22-tetramethyl ether], in assay [1], the “rel max FI (20E), AA” value was 0.07 and the “rel max FI (PoA), AA” value stood at 0.02. The EC50 in assay [1] (read-out: EC50 (μM), AA) was greater than 33 µM. Besides, in assay [2] (DmEcR), the “rel max FI (20E), DM” value worked out at 0.01 and the “rel max FI (PoA), DM” value stood at 0.02. Also, in assay [2] (read-out: EC50 (μM), DM, DmEcR, NIH3T3 cells, luciferase, 48 h, ligand 0.01-33 μM), the half-maximal effective concentration (EC50) was greater than 33 µM. Also, the “rel max FI (20E), TM” value in assay [3] (TmEcR, max fold induction at any concentration relative to 20E) is 0.05. Further, the “rel max FI (PoA), TM” value in assay [3] (TmEcR, max fold induction at any concentration relative to PoA) is listed as 0.02. In addition, the EC50 in assay [3] (read-out: EC50 (μM), TM, TmEcR, NIH3T3 cells, luciferase, 48 h, ligand 0.01-33 μM) was greater than 33 µM.

On to `CC(C)(O)C(CCC(C)(O)C1CCC2(O)C3=CC(=O)C4CC(O)C(O)CC4(C)C3CCC12C)OC(=O)c1ccc[nH]1` (centres unmarked) [canescensterone], for which, in assay [4], the “selectivity / relative potency between EcRs” value is “selective for non-lepidopteran EcRs; also recorded: BaEcR>E274V/V390I/Y410E mutant-CfEcR”. The response in assay [5] was half-maximal at 0.00053 µM (EC50).

Consider `CO[C@H]1C[C@@]2(C)[C@@H](C[C@H]1O)C(=O)C=C1[C@@H]2CC[C@]2(C)[C@@H]([C@@](C)(O)[C@@H](CCC(C)(C)O)OC)CC[C@@]12O` [20E-2,22-dimethyl ether], for which the “rel max FI (20E), AA” value in assay [1] was found to be 2.34. The “rel max FI (PoA), AA” value in assay [1] is 0.80. The EC50 is roughly 8 µM in assay [1] (EC50 (μM), AA); roughly 20 µM in assay [2] (EC50 (μM), DM, DmEcR, NIH3T3 cells, luciferase, 48 h, ligand 0.01-33 μM); roughly 10 µM in assay [3]. Besides, the “rel max FI (20E), DM” value in assay [2] (DmEcR) amounted to 0.12. Also, the “rel max FI (PoA), DM” value in assay [2] (DmEcR) stood at 0.15. Further, the Emax was found to be 24% in assay [3] (read-out: rel max FI (20E), TM) and 13% in assay [3] (read-out: rel max FI (PoA), TM).

`CC(C)CC[C@@H](O)[C@](C)(O)[C@H]1CC[C@@]2(O)C3=CC(=O)[C@@H]4C[C@@H](O)[C@@H](O)C[C@]4(C)[C@H]3[C@H](O)C[C@]12C` [ajugasterone C]: the “selectivity / relative potency between EcRs” value in assay [4] is recorded as “higher in non-lepidopteran species”.

Regarding `CO[C@@H]1C[C@H]2C(=O)C=C3[C@H](CC[C@]4(C)[C@@H]([C@@](C)(O)[C@@H](CCC(C)(C)O)OC)CC[C@@]34O)[C@@]2(C)C[C@@H]1O` [20E-3,22-dimethyl ether], in assay [1], the “rel max FI (20E), AA” value is on record as 2.32. Besides, the “rel max FI (PoA), AA” value in assay [1] is given as 0.79. The EC50 is 7.15 µM in assay [1] (EC50 (μM), AA); roughly 20 µM in assay [2]; roughly 6 µM in assay [3]. Also, the “rel max FI (20E), DM” value in assay [2] (DmEcR) came out at 0.07. Further, the “rel max FI (PoA), DM” value in assay [2] (DmEcR) worked out at 0.09. Moreover, the Emax in assay [3] (read-out: rel max FI (20E), TM) is 137%; in assay [3] (read-out: rel max FI (PoA), TM), 71%.

`CO[C@H]1C[C@@]2(C)[C@@H](C[C@H]1O)C(=O)C=C1[C@@H]2CC[C@]2(C)[C@@H]([C@@](C)(O)[C@H](O)CCC(C)(C)O)CC[C@@]12O` [20E-2-methyl ether]: in assay [1], the “rel max FI (20E), AA” value amounted to 0.87. In assay [1], the “rel max FI (PoA), AA” value is 0.30. Besides, the EC50 in assay [1] (EC50 (μM), AA) is roughly 10 µM; in assay [2] it was greater than 33 µM; in assay [3], greater than 33 µM. Further, in assay [2] (DmEcR), the “rel max FI (20E), DM” value was determined as 0.00. The “rel max FI (PoA), DM” value in assay [2] (DmEcR) worked out at 0.00. Further, the Emax amounted to 7% in assay [3] (read-out: rel max FI (20E), TM) and 4% in assay [3] (read-out: rel max FI (PoA), TM).

For the compound `CC(C)=CC[C@@H](O)[C@](C)(O)[C@H]1CC[C@@]2(O)C3=CC(=O)[C@@H]4C[C@@H](O)[C@@H](O)C[C@]4(C)[C@H]3CC[C@]12C` [stachysterone C], the “activity across the tested set of EcRs” value in assay [4] (FIGS. 13 and 14) was “active”.

As for `C[C@@H]1C(=O)O[C@H](C)[C@H]1C[C@@H](O)[C@](C)(O)[C@H]1CC[C@@]2(O)C3=CC(=O)[C@@H]4C[C@@H](O)[C@@H](O)C[C@]4(C)[C@H]3CC[C@]12C` [cyasterone], the “selectivity / relative potency between EcRs” value in assay [4] is listed as “somewhat selective for lepidopteran EcRs”.
